Several values for one entry are separate records, joined by “and”; a condition that tells them apart may be missing. Identical values can stand only once. Inconclusive results and toxic doses are left out.
Tested on: P388 leukemia ip, CD2F1 mice, survival T/C
Test: NCI In Vivo Anticancer Drug Screen. Data for tumor model P388 Leukemia (intraperitoneal) in CD2F1 (CDF1) mice
Details: endpoint: median survival time, higher = longer survival
Summary of the method: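 Mice carrying the transplanted tumor received test compound or vehicle. Survival was recorded in each group, and the value is the treated-group measurement divided by that of the vehicle-treated control group.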

[1] = dose: 50.0 mg/kg/injection, schedule: Q01DX005 (ip), vehicle: Klucel (hydroxypropylcellulose) (HPC)
[2] = dose: 100.0 mg/kg/injection, schedule: Q01DX005 (ip), vehicle: Klucel (hydroxypropylcellulose) (HPC)
[3] = dose: 50.0 mg/kg/injection, schedule: Q01DX005 (ip), vehicle: saline with Tween-80
[4] = dose: 100.0 mg/kg/injection, schedule: Q01DX005 (ip), vehicle: saline with Tween-80
[5] = dose: 200.0 mg/kg/injection, schedule: Q01DX005 (ip), vehicle: saline with Tween-80
[6] = dose: 60.0 mg/kg/injection, schedule: Q01DX005 (ip), vehicle: saline with Tween-80
[7] = dose: 120.0 mg/kg/injection, schedule: Q01DX005 (ip), vehicle: saline with Tween-80
[8] = dose: 240.0 mg/kg/injection, schedule: Q01DX005 (ip), vehicle: saline with Tween-80
[9] = dose: 12.5 mg/kg/injection, schedule: Q04DX002 (ip), vehicle: saline with Tween-80
[10] = dose: 25.0 mg/kg/injection, schedule: Q04DX002 (ip), vehicle: saline with Tween-80
[11] = dose: 50.0 mg/kg/injection, schedule: Q04DX002 (ip), vehicle: saline with Tween-80
[12] = dose: 50.0 mg/kg/injection, schedule: Q01DX009 (ip), vehicle: saline with Tween-80
[13] = dose: 100.0 mg/kg/injection, schedule: Q01DX009 (ip), vehicle: saline with Tween-80
[14] = dose: 200.0 mg/kg/injection, schedule: Q01DX009 (ip), vehicle: saline with Tween-80

NC(Cc1cc([N+](=O)[O-])ccc1CN(CCCl)CCCl)C(=O)O (centres undefined)
T/C (dose: 0.06 mg/kg/injection, schedule: Q01DX009 (ip), vehicle: Klucel (hydroxypropylcellulose) (HPC)): 104 % of control | T/C (dose: 0.11 mg/kg/injection, schedule: Q04DX003 (ip), vehicle: Klucel (hydroxypropylcellulose) (HPC)): 110 % of control | T/C (dose: 0.12 mg/kg/injection, schedule: Q01DX009 (ip), vehicle: Klucel (hydroxypropylcellulose) (HPC)): 120 % of control | T/C (dose: 0.23 mg/kg/injection, schedule: Q04DX003 (ip), vehicle: Klucel (hydroxypropylcellulose) (HPC)): 104 % of control | T/C (dose: 0.25 mg/kg/injection, schedule: Q01DX009 (ip), vehicle: Klucel (hydroxypropylcellulose) (HPC)): 117 % of control | T/C (dose: 0.47 mg/kg/injection, schedule: Q04DX003 (ip), vehicle: Klucel (hydroxypropylcellulose) (HPC)): 120 % of control | T/C (dose: 1.88 mg/kg/injection, schedule: Q04DX003 (ip), vehicle: Klucel (hydroxypropylcellulose) (HPC)): 189 % of control | T/C (dose: 2.0 mg/kg/injection, schedule: Q01DX009 (ip), vehicle: Klucel (hydroxypropylcellulose) (HPC)): 105 % of control | T/C (dose: 3.75 mg/kg/injection, schedule: Q04DX003 (ip), vehicle: Klucel (hydroxypropylcellulose) (HPC)): 119 % of control | T/C (dose: 4.0 mg/kg/injection, schedule: Q01DX009 (ip), vehicle: Klucel (hydroxypropylcellulose) (HPC)): 93 % of control | T/C (dose: 6.25 mg/kg/injection, schedule: Q01DX001 (ip), vehicle: Klucel (hydroxypropylcellulose) (HPC)): 93 % of control | T/C (dose: 7.5 mg/kg/injection, schedule: Q04DX003 (ip), vehicle: Klucel (hydroxypropylcellulose) (HPC)): 99 % of control | T/C (dose: 8.0 mg/kg/injection, schedule: Q01DX009 (ip), vehicle: Klucel (hydroxypropylcellulose) (HPC)): 90 % of control | T/C (dose: 15.0 mg/kg/injection, schedule: Q04DX003 (ip), vehicle: Klucel (hydroxypropylcellulose) (HPC)): 91 % of control | T/C (dose: 25.0 mg/kg/injection, schedule: Q01DX001 (ip), vehicle: Klucel (hydroxypropylcellulose) (HPC)): 90 % of control

COc1ccc(C(c2cc(C(C)(C)C)cc(C(C)(C)C)c2O)N2CCOCC2)cc1 (centres undefined)
T/C (dose: 50.0 mg/kg/injection, schedule: Q01DX005 (ip), vehicle: distilled water + alcohol): 99 % of control | T/C (dose: 100.0 mg/kg/injection, schedule: Q01DX005 (ip), vehicle: distilled water + alcohol): 103 % of control | T/C (dose: 200.0 mg/kg/injection, schedule: Q01DX005 (ip), vehicle: distilled water + alcohol): 99 % of control

CN1C=c2c3c(ccc2=C2C=CC4C=C5OCOC5=CC4=C21)OCO3 (centres undefined)
T/C (dose: 4.0 mg/kg/injection, schedule: Q01DX009 (ip), vehicle: saline with Tween-80): 113 % of control | T/C (dose: 8.0 mg/kg/injection, schedule: Q01DX009 (ip), vehicle: saline with Tween-80): 107 % of control | T/C (dose: 16.0 mg/kg/injection, schedule: Q01DX009 (ip), vehicle: saline with Tween-80): 110 % of control

CCOP(=O)(OCC)/C(C#N)=C\c1ccc(O)c(OC)c1
T/C (dose: 100.0 mg/kg/injection, schedule: Q04DX003 (ip), vehicle: saline with Tween-80): 110 % of control | T/C (dose: 200.0 mg/kg/injection, schedule: Q04DX003 (ip), vehicle: saline with Tween-80): 100 % of control | T/C (dose: 400.0 mg/kg/injection, schedule: Q04DX003 (ip), vehicle: saline with Tween-80): 100 % of control

N#Cc1nn(-c2ccccc2)sc1=N
T/C (dose: 3.13 mg/kg/injection, schedule: Q01DX009 (ip), vehicle: other): 104 % of control | T/C (dose: 6.25 mg/kg/injection, schedule: Q01DX009 (ip), vehicle: other): 110 % of control | T/C (dose: 12.5 mg/kg/injection, schedule: Q01DX009 (ip), vehicle: other): 100 % of control | T/C (dose: 25.0 mg/kg/injection, schedule: Q01DX009 (ip), vehicle: other): 94 % of control | T/C (dose: 50.0 mg/kg/injection, schedule: Q01DX009 (ip), vehicle: other): 88 % of control | T/C (dose: 100.0 mg/kg/injection, schedule: Q01DX009 (ip), vehicle: other): 88 % of control

COC(=O)Nn1cc(C(C(C)=O)C(C)=O)c(C(C)=O)c1C
T/C [1]: 99 % of control | T/C [2]: 89 % of control

CC(C)(C)C1=CC(=CC=C2C=CN(CCO)C=C2)C=C(C(C)(C)C)C1=O
T/C (dose: 7.5 mg/kg/injection, schedule: Q01DX005 (ip), vehicle: saline with Tween-80): 105 % of control | T/C (dose: 15.0 mg/kg/injection, schedule: Q01DX005 (ip), vehicle: saline with Tween-80): 98 % of control | T/C (dose: 30.0 mg/kg/injection, schedule: Q01DX005 (ip), vehicle: saline with Tween-80): 104 % of control

COc1ccc2[nH]c3c(c2c1)-c1ncncc1CC3
T/C [3]: 100 % of control | T/C [4]: 97 % of control | T/C [5]: 106 % of control

O=C1CS(=O)(=O)C(c2ccc(F)cc2)N1N1C(=O)CS(=O)(=O)C1c1ccc(F)cc1 (centres undefined)
T/C [6]: 91 % of control | T/C [7]: 93 % of control | T/C [8]: 93 % of control

O=C1c2ccccc2-c2cn(-c3ccccc3)c3cccc1c23
T/C [1]: 103 % of control | T/C [2]: 100 % of control

C=C1C(=O)OC2CC(C)C3C(OC(C)=O)CC(OC(C)=O)C3(C)CC12 (centres undefined)
T/C [9]: 99 % of control | T/C [10]: 106 % of control | T/C [11]: 103 % of control

Cc1nc(C2(O)C(C3COC(C)(C)O3)OC3OC(C)(C)OC32)no1 (centres undefined)
T/C [6]: 100 % of control | T/C [7]: 100 % of control | T/C [8]: 100 % of control

O=[n+]1c2c(n([O-])c3ccccc31)CCCCCC2
T/C [12]: 108 % of control | T/C [13]: 99 % of control | T/C [14]: 100 % of control

C/C=C(\C)[C@H](O)C(COCc1ccccc1)NS(=O)(=O)c1ccc(C)cc1 (some centres undefined)
T/C (dose: 60.0 mg/kg/injection, schedule: Q01DX005 (ip), vehicle: Klucel (hydroxypropylcellulose) (HPC)): 100 % of control | T/C (dose: 120.0 mg/kg/injection, schedule: Q01DX005 (ip), vehicle: Klucel (hydroxypropylcellulose) (HPC)): 100 % of control | T/C (dose: 240.0 mg/kg/injection, schedule: Q01DX005 (ip), vehicle: Klucel (hydroxypropylcellulose) (HPC)): 92 % of control

COc1ccc2c(c1)CCC1=C2C=C[P+]1(C)C
T/C [12]: 94 % of control

CC(=O)Nc1ccc2cc(-c3ccc(Cl)cc3)c3nnnn3c2n1
T/C [3]: 96 % of control | T/C [4]: 94 % of control | T/C [5]: 93 % of control

COc1cc(C)c(O)c(C/C=C(\C)CC2=C[C@@]3(C)CCC[C@@]3(C)[C@]3(C=CC(C)(C)O3)O2)c1
T/C (dose: 10.0 mg/kg/injection, schedule: Q01DX005 (ip), vehicle: saline with Tween-80): 94 % of control | T/C (dose: 20.0 mg/kg/injection, schedule: Q01DX005 (ip), vehicle: saline with Tween-80): 99 % of control | T/C (dose: 40.0 mg/kg/injection, schedule: Q01DX005 (ip), vehicle: saline with Tween-80): 99 % of control

CCCn1c(O)c(C=N)c(=O)n(CCC)c1=O
T/C [13]: 95 % of control | T/C [14]: 100 % of control | T/C (dose: 400.0 mg/kg/injection, schedule: Q01DX009 (ip), vehicle: saline with Tween-80): 100 % of control

O=C(Nc1ccc(Br)cc1)c1ccc(Cl)c(Cl)c1
T/C (dose: 100.0 mg/kg/injection, schedule: Q01DX009 (ip), vehicle: Klucel (hydroxypropylcellulose) (HPC)): 116 % of control | T/C (dose: 200.0 mg/kg/injection, schedule: Q01DX009 (ip), vehicle: Klucel (hydroxypropylcellulose) (HPC)): 119 % of control | T/C (dose: 400.0 mg/kg/injection, schedule: Q01DX009 (ip), vehicle: Klucel (hydroxypropylcellulose) (HPC)): 117 % of control

O=C1OCC23CCC4C1C42CC1(CC3)OCCO1 (centres undefined)
T/C (dose: 50.0 mg/kg/injection, schedule: Q01DX005 (ip), vehicle: saline): 99 % of control | T/C (dose: 100.0 mg/kg/injection, schedule: Q01DX005 (ip), vehicle: saline): 101 % of control | T/C (dose: 200.0 mg/kg/injection, schedule: Q01DX005 (ip), vehicle: saline): 98 % of control

NN=C(c1ccccn1)c1ccccn1
T/C (dose: 37.5 mg/kg/injection, schedule: Q01DX009 (ip), vehicle: saline with Tween-80): 94 % of control | T/C (dose: 75.0 mg/kg/injection, schedule: Q01DX009 (ip), vehicle: saline with Tween-80): 114 % of control | T/C (dose: 150.0 mg/kg/injection, schedule: Q01DX009 (ip), vehicle: saline with Tween-80): 113 % of control

[Cl][Pt+2][Cl].[NH-]c1ccc([N+](=O)[O-])cc1[NH-]
T/C (dose: 3.12 mg/kg/injection, schedule: Q04DX002 (ip), vehicle: saline with Tween-80): 100 % of control | T/C (dose: 6.25 mg/kg/injection, schedule: Q04DX002 (ip), vehicle: saline with Tween-80): 110 % of control and 113 % of control | T/C [9]: 115 % of control and 118 % of control | T/C [10]: 123 % of control | T/C [11]: 117 % of control

From PubChem BioAssay AID330 (DTP/NCI, 2004)
